Source: patent US8575156B2, “Cyclic inhibitors of 11β-hydroxysteroid dehydrogenase 1” (Vitae Pharmaceuticals, Inc., priority 2007, dated 2013)
Where two headings read alike, the source gives them in different places.

Biological target: 11β-HSD1 (Homo sapiens, UniProt P28845)
Test: biochemical
Details: for IC50: IC50 Range, Biological Test Example 1, microsomes from CHO cells overexpressing human 11β-HSD1
[1] = read-out: Average % inhibition at 111.1 nM, Biological Test Example 1, 111.1 nM compound
[2] = read-out: Average % inhibition at 100 nM, Biological Test Example 1, 100 nM compound
[3] = read-out: Average % inhibition at 100 nM

11β-HSD1, sequence (P28845 whole entry): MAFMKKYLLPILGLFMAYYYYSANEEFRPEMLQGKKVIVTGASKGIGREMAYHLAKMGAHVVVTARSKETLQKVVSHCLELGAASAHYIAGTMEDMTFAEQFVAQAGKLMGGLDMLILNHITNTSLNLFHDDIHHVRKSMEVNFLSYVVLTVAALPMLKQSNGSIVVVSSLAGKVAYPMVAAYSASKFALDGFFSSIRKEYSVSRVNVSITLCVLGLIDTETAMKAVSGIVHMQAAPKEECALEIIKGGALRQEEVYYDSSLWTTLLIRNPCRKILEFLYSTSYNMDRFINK

IC50 [µM] | inhibition at 0.1111 µM [1] [%] | inhibition at 0.1 µM [2] [%] | SMILES | inhibition at 0.1 µM [3] [%] | inhibition at 0.1111 µM (read-out: Average % inhibition at 111.1 nM) [%]
< 0.1 | 97.6 | – | O=C1OC(CCO)(c2ccccc2)CCN1c1cccc(-c2ccc(F)cc2Cl)n1 (stereo not shown) [EXAMPLE 116, 3-(6-(2-chloro-4-fluorophenyl)pyridin-2-yl)-6-(2-hydroxyethyl)-6-phenyl-1,3-oxazinan-2-one] | – | –
< 0.1 | 82.8 | – | CC(C)(O)CC1(c2ccccc2)CCN(c2cccc(-c3ccc(F)cc3F)c2)C(=O)O1 (stereo not shown) [EXAMPLE 117, 3-(2′,4′-difluorobiphenyl-3-yl)-6-(2-hydroxy-2-methylpropyl)-6-phenyl-1,3-oxazinan-2-one] | – | –
< 0.1 | 96.8 | – | O=C1OC(CCO)(c2ccc(F)cc2)CCN1c1cccc(-c2ccc(F)cc2Cl)n1 (stereo not shown) [EXAMPLE 118, 3-(6-(2-chloro-4-fluorophenyl)pyridin-2-yl)-6-(4-fluorophenyl)-6-(2-hydroxyethyl)-1,3-oxazinan-2-one] | – | –
0.1 to 1 | 34.2 | – | CC1(c2ccccc2)CCN(c2nc(-c3ccccc3)cs2)C(=O)O1 (stereo not shown) [EXAMPLE 121, 6-methyl-6-phenyl-3-(4-phenylthiazol-2-yl)-1,3-oxazinan-2-one] | – | –
< 0.1 | 95.6 | 94.1 | C[C@@H](C1CCCCC1)N1CC[C@](CCCO)(c2ccc(F)cc2)OC1=O [EXAMPLE 122, (R)-3-((S)-1-cyclohexylethyl)-6-(4-fluorophenyl)-6-(3-hydroxypropyl)-1,3-oxazinan-2-one] | – | –
< 0.1 | 97.6 | – | C=CC[C@]1(c2ccc(F)cc2)CCN([C@@H](C)c2ccc(C3CC3)cc2)C(=O)O1 [EXAMPLE 123, (R)-6-allyl-3-((S)-1-(4-cyclopropylphenyl)ethyl)-6-(4-fluorophenyl)-1,3-oxazinan-2-one] | – | –
< 0.1 | 96.8 | 95.2 | C=CC[C@]1(c2ccc(F)cc2)CCN([C@@H](C)c2ccc(C(=O)OC)cc2)C(=O)O1 [EXAMPLE 124, Methyl 4-((S)-1-((R)-6-allyl-6-(4-fluorophenyl)-2-oxo-1,3-oxazinan-3-yl)ethyl)benzoate] | – | –
< 0.1 | 94 | 98.3 | C[C@@H](c1ccc(C2CC2)cc1)N1CC[C@](CCCO)(c2ccc(F)cc2)OC1=O [EXAMPLE 125, (R)-3-((S)-1-(4-cyclopropylphenyl)ethyl)-6-(4-fluorophenyl)-6-(3-hydroxypropyl)-1,3-oxazinan-2-one] | – | –
< 0.1 | 80.7 | 79 | O=C1O[C@@](CCO)(c2ccccc2)CCN1c1cccc(-c2ccc(F)cc2)[n+]1[O-] [EXAMPLE 126, (S)-2-(4-fluorophenyl)-6-(6-(2-hydroxyethyl)-2-oxo-6-phenyl-1,3-oxazinan-3-yl)pyridine 1-oxide] | – | –
< 0.1 | – | 86.3 | COC(=O)c1ccc([C@H](C)N2CC[C@](CCCO)(c3ccc(F)cc3)OC2=O)cc1 [EXAMPLE 127, Methyl 4-((S)-1-((R)-6-(4-fluorophenyl)-6-(3-hydroxypropyl)-2-oxo-1,3-oxazinan-3-yl)ethyl)benzoate] | – | –
> 1 | 11.3 | 6.6 | C=CCC1(c2ccc(F)cc2)CCN(C(C)c2ccc(-c3ccc(F)cc3F)cn2)C(=O)O1 (stereo not shown) [EXAMPLE 131, 6-allyl-3-(1-(5-(2,4-difluorophenyl)pyridin-2-yl)ethyl)-6-(4-fluorophenyl)-1,3-oxazinan-2-one] | – | –
0.1 to 1 | 30.4 | – | O=C1OC(CCO)(c2ccccc2F)CCN1c1cccc(-c2ccc(F)cc2F)[n+]1[O-] (stereo not shown) [EXAMPLE 132, 2-(2,4-difluorophenyl)-6-(6-(2-fluorophenyl)-6-(2-hydroxyethyl)-2-oxo-1,3-oxazinan-3-yl)pyridine 1-oxide] | – | –
< 0.1 | 93.8 | 88.9 | O=C1OC(CCO)(c2ccccc2F)CCN1c1ccc(Cl)c(-c2ccc(F)cc2F)n1 (stereo not shown) [EXAMPLE 135, 3-(5-chloro-6-(2,4-difluorophenyl)pyridin-2-yl)-6-(2-fluorophenyl)-6-(2-hydroxyethyl)-1,3-oxazinan-2-one] | – | –
0.1 to 1 | 27.4 | 34.4 | C[C@@H](c1ccc(C(=O)O)cc1)N1CC[C@](CCCO)(c2ccc(F)cc2)OC1=O [EXAMPLE 142, 4-((S)-1-((R)-6-(4-fluorophenyl)-6-(3-hydroxypropyl)-2-oxo-1,3-oxazinan-3-yl)ethyl)benzoic acid] | – | –
0.1 to 1 | 26.6 | 27 | C=CC[C@]1(c2ccc(F)cc2)CCN([C@@H](C)c2ccc(C(N)=O)cc2)C(=O)O1 [EXAMPLE 153, 4-((S)-1-((R)-6-allyl-6-(4-fluorophenyl)-2-oxo-1,3-oxazinan-3-yl)ethyl)benzamide] | – | –
< 0.1 | 79 | – | C[C@@H](c1ccc(CO)cc1)N1CC[C@](CCCO)(c2ccc(F)cc2)OC1=O [EXAMPLE 154, (R)-6-(4-fluorophenyl)-3-((S)-1-(4-(hydroxymethyl)phenyl)ethyl)-6-(3-hydroxypropyl)-1,3-oxazinan-2-one] | – | –
0.1 to 1 | 45.6 | – | C=CC[C@]1(c2ccc(F)cc2)CCN([C@@H](C)c2ccc(C(=O)NC)cc2)C(=O)O1 [EXAMPLE 155, 4-((S)-1-((R)-6-allyl-6-(4-fluorophenyl)-2-oxo-1,3-oxazinan-3-yl)ethyl)-N-methylbenzamide] | – | –
< 0.1 | 93.8 | – | C=CC[C@]1(c2ccc(F)cc2)CCN([C@@H](C)c2ccc(C(C)(C)O)cc2)C(=O)O1 [EXAMPLE 156, (R)-6-allyl-6-(4-fluorophenyl)-3-((S)-1-(4-(2-hydroxypropan-2-yl)phenyl)ethyl)-1,3-oxazinan-2-one] | – | –
< 0.1 | 92.9 | – | C=CC[C@@]1(c2cccs2)CCN([C@@H](C)c2ccc(-c3ccc(F)cc3F)cc2)C(=O)O1 [EXAMPLE 165, (S)-6-allyl-3-((S)-1-(2′,4′-difluorobiphenyl-4-yl)ethyl)-6-(thiophen-2-yl)-1,3-oxazinan-2-one] | – | –
< 0.1 | 81.8 | – | C[C@@H](c1ccc(-c2ccc(F)cc2)cc1)N1CC[C@@](CCCO)(c2cccs2)OC1=O [EXAMPLE 166, (S)-3-((S)-1-(4′-fluorobiphenyl-4-yl)ethyl)-6-(3-hydroxypropyl)-6-(thiophen-2-yl)-1,3-oxazinan-2-one] | – | –
< 0.1 | – | 97 | CC(O)C[C@]1(c2ccccc2)CCN([C@@H](C)c2ccc(-c3ccc(F)cc3F)cc2)C(=O)O1 (stereo partly drawn) [EXAMPLE 170, (6S)-3-((S)-1-(2′,4′-difluorobiphenyl-4-yl)ethyl)-6-(2-hydroxypropyl)-6-phenyl-1,3-oxazinan-2-one] | – | –
0.1 to 1 | 48 | – | C[C@@H](c1ccc(-c2ccc(F)cc2F)cc1)N1CC[C@](CC(=O)O)(c2ccc(F)cc2)OC1=O [EXAMPLE 174, 2-((S)-3-((S)-1-(2′,4′-difluorobiphenyl-4-yl)ethyl)-6-(4-fluorophenyl)-2-oxo-1,3-oxazinan-6-yl)acetic acid] | – | –
< 0.1 | – | 70.7 | C=CC[C@]1(c2ccc(F)cc2)CCN([C@@H](C)c2ccc(C#N)cc2)C(=O)O1 [EXAMPLE 192, 4-((S)-1-((R)-6-allyl-6-(4-fluorophenyl)-2-oxo-1,3-oxazinan-3-yl)ethyl)benzonitrile] | – | –
< 0.1 | – | 96.8 | COc1ccc([C@H](C)N2CC[C@](CCO)(c3ccc(F)cc3)OC2=O)cc1 [EXAMPLE 195, (S)-6-(4-fluorophenyl)-6-(2-hydroxyethyl)-3-((S)-1-(4-methoxyphenyl)ethyl)-1,3-oxazinan-2-one] | – | –
< 0.1 | – | 95.9 | C[C@@H](c1ccc(Cl)cc1)N1CC[C@](CCCO)(c2ccc(F)cc2)OC1=O [EXAMPLE 202, (R)-3-((1S)-1-(4-chlorophenyl)ethyl)-6-(4-fluorophenyl)-6-(3-hydroxypropyl)-1,3-oxazinan-2-one] | – | –
< 0.1 | – | 79.1 | CC(O)CC1(C(C)C)CCN([C@@H](C)c2ccc(-c3ccc(F)cc3F)cc2)C(=O)O1 (stereo partly drawn) [EXAMPLE 213, 3-((1S)-1-(2′,4′-difluorobiphenyl-4-yl)ethyl)-6-(2-hydroxypropyl)-6-isopropyl-1,3-oxazinan-2-one] | – | –
< 0.1 | – | 72.1 | C=CC[C@]1(c2ccc(F)cc2)CCN([C@@H](C)c2ccc(-c3nnc(C)o3)cc2)C(=O)O1 [EXAMPLE 215, (R)-6-allyl-6-(4-fluorophenyl)-3-((S)-1-(4-(5-methyl-1,3,4-oxadiazol-2-yl)phenyl)ethyl)-1,3-oxazinan-2-one] | – | –
< 0.1 | – | 92.6 | C[C@@H](c1ccc(-c2cccs2)cc1)N1CC[C@](CCCO)(c2ccccc2)OC1=O [EXAMPLE 216, (R)-6-(3-hydroxypropyl)-6-phenyl-3-((S)-1-(4-(thiophen-2-yl)phenyl)ethyl)-1,3-oxazinan-2-one] | – | –
< 0.1 | – | 88 | C=CC[C@]1(c2ccc(F)cc2)CCN([C@@H](C)c2ccc(N3CCOCC3)cc2)C(=O)O1 [EXAMPLE 217, (R)-6-allyl-6-(4-fluorophenyl)-3-((S)-1-(4-morpholinophenyl)ethyl)-1,3-oxazinan-2-one] | – | –

SMILES | IC50 [µM] | inhibition at 0.1111 µM [1] [%] | inhibition at 0.1 µM [2] [%] | inhibition at 0.1 µM [3] [%] | inhibition at 0.1111 µM (read-out: Average % inhibition at 111.1 nM) [%]
O=C1OC(CCO)(c2ccccc2F)CCN1c1ccc(Cl)c(-c2ccc(F)cc2)n1 (stereo not shown) [EXAMPLE 133, 3-(5-chloro-6-(4-fluorophenyl)pyridin-2-yl)-6-(2-fluorophenyl)-6-(2-hydroxyethyl)-1,3-oxazinan-2-one] | < 0.1 | – | – | 85.8 | 95.4
COCc1ccc([C@H](C)N2CC[C@](CCCO)(c3ccccc3)OC2=O)cc1 [EXAMPLE 199, (R)-6-(3-hydroxypropyl)-3-((S)-1-(4-(methoxymethyl)phenyl)ethyl)-6-phenyl-1,3-oxazinan-2-one] | < 0.1 | – | – | 90.3 | –
CC[C@@H](c1ccc(Br)cc1)N1CC[C@](CCCO)(c2ccccc2)OC1=O [EXAMPLE 220, (R)-3-((S)-1-(4-bromophenyl)propyl)-6-(3-hydroxypropyl)-6-phenyl-1,3-oxazinan-2-one] | < 0.1 | – | – | 85.5 | –
